Measurements from BindingDB's records for doi:10.1021/jm970560h (Warner-Lambert, 1998).
pIC50: −log10 of the molar value.

Biological target: Sterol O-acyltransferase 1 (ACAT) (Mus musculus) (UniProt Q61263)
Assay: Inhibition of Acyl coenzyme A:cholesterol acyltransferase by cellular MAI2 assay

Chain of Sterol O-acyltransferase 1 (ACAT) (Mus musculus) (Q61263 whole entry, looked up): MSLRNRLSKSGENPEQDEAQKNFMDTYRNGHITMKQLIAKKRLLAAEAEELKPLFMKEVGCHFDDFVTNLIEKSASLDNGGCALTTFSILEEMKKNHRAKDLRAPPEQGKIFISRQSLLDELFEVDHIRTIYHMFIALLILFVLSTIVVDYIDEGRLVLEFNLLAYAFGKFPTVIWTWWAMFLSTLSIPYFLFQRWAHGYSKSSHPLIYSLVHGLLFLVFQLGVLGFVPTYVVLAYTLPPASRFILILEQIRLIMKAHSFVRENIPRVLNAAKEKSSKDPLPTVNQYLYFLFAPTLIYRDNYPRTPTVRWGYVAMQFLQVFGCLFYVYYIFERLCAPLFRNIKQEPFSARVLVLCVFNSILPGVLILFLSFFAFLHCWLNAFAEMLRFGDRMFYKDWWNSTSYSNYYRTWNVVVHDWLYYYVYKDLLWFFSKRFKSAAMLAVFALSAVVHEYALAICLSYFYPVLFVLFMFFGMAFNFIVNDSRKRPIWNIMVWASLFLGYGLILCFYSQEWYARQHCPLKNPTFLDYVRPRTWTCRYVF

- pIC50: 7.70
SMILES: CCCCCCCCCCCCOC(=O)C(C(=O)Nc1c(C(C)C)cccc1C(C)C)c1ccccc1 (stereo unspecified) [N-(2,6-Diisopropyl-phenyl)-2-phenyl-malonamic acid dodecyl ester]
